Laboratory results: patent publication US8772335B2, “Adamantyl derivatives as therapeutic agents” (Women & Infants' Hospital of Rhode Island, priority 2011, dated 2014)

Experiments:
Assay type in all cases: cell-based
[1] = tested on: ovarian and endometrial cancer cells; assay: MTS viability with ascorbic acid co-treatment (role of ROS)
Experimental: Cancer cells derived from neuroblastoma (SMSKCNR), ovarian (SKOV-3), prostate (PC-3), endometrial (ECC-1, AN3CA, KLE), breast (MCF-7) and trophoblasts (TCL-1) were seeded (5000-10000 cells/well) in a 96 well plate in complete medium as recommended by ATCC and allowed to adhere overnight. The medium was replaced with fresh complete medium containing ascorbic acid (500 μM) and added various concentrations of AC-AM. The cells were incubated under standard humidified incubator (5% CO2) for 24 hours. The medium was replaced again with 100 μL of complete RPMI medium containing MTS reagent (Cell titre 96 aqueous one solution cell proliferation assay, Promega, Madison, Wis.) and incubated for 1-6 hours until violet farmazon color developed (the optical density of the color was read with an ELISA plate reader at 492 nm wavelength). The OD values of the treatment wells were plotted against vehicle OD set at 100% cell viability using MS excel software.

[2] = tested on: SKOV-3 cells; assay: Cell cycle progression of SKOV-3 cells (propidium iodide, FACS); design: G1 / Apoptosis: unit not given here; details: for G1 / G2/M / S / Apoptosis: SKOV-3 cells, 10 μM; for G1 / G2/M / S: cell population distribution by FACS; for Apoptosis: sub-G1 population by FACS
Experimental: SKOV-3 cells (˜1 million) were seeded in complete DMEM media in 10 cm^2 dishes and allowed to adhere overnight. Media was removed and supplemented with AMITC and AC-AM (10 μM) or vehicle and cells were harvested at 4, 12, 18, 32, and 48 hours. The cells were washed and fixed with cold 70% ethanol/H2O. After 1 hour, ethanol was removed and 500 μL of propidinium iodide (PI) (1 mg/10 mL) was added to each tube containing cells. The distribution of the cell population in various phases of cell-cycle was analyzed using FACS. 10,000 events were chosen from each sample.

[3] = tested on: immortalized TCL-1 trophoblasts; assay: MTS cell viability, immortalized trophoblasts (control cells); details: drug concentrations of 40 μM
Experimental: Cancer cells derived from neuroblastoma (SMSKCNR), ovarian (SKOV-3), prostate (PC-3), cervical (HeLa), skin (a431), immortalized lung fibroblasts (MRCS) and immortalized trophoblasts (TCL-1) were seeded (5000-10000) in a 96 well plate in complete medium as recommended by ATCC and allowed to adhere overnight. Medium was replaced with fresh complete medium containing various concentrations of compound (2) and (3). The cells were incubated under standard humidified incubator (5% CO2) for 48 hours. The medium was replaced again with 100 μL of complete RPMI medium containing MTS reagent (Cell titre 96 aqueous one solution cell proliferation assay, Promega, Madison, Wis.) and incubated for 1-6 hours until violet farmazon color developed (the optical density (OD) of the color was read with an ELISA plate reader at 492 nm wavelength). The OD values of the treatment wells were plotted against vehicle OD as 100% cell viablity using MS excel software.
Cancer cells derived from neuroblastoma (SMSKCNR), ovarian (SKOV-3), prostate (PC-3), endometrial (ECC-1, AN3CA, KLE), breast (MCF-7) and trophoblasts (TCL-1) were seeded (5000-10000 cells/well) in a 96 well plate in complete medium as recommended by ATCC and allowed to adhere overnight. The medium was replaced with fresh complete medium containing ascorbic acid (500 μM) and added various concentrations of AC-AM. […]

Compound	G1 ([2]; 4 hr)	G2/M ([2]; 4 hr)	S ([2]; 4 hr)	Apoptosis ([2]; 4 hr)	G1 ([2]; 12 hr)	G2/M ([2]; 12 hr)	S ([2]; 12 hr)	Apoptosis ([2]; 12 hr)	G1 ([2]; 18 hr)	G2/M ([2]; 18 hr)	S ([2]; 18 hr)	Apoptosis ([2]; 18 hr)	G1 ([2]; 32 hr)	G2/M ([2]; 32 hr)	S ([2]; 32 hr)	Apoptosis ([2]; 32 hr)	G1 ([2]; 48 hr)	G2/M ([2]; 48 hr)	S ([2]; 48 hr)	Apoptosis ([2]; 48 hr)	also measured
CC(=O)NC(CSC(=S)NCC12CC3CC(CC(C3)C1)C2)C(=O)O (stereo not shown) [AC-AM]	63	10.40	25.70	4.81	45.15	27.17	27.67	7.73	37.37	30.85	31.78	13.33	37.78	28.89	33.34	16.29	48.48	17.90	33.62	16.62	effect of antioxidant ascorbic acid on cytotoxicity [1]: blocked
S=C=NCC12CC3CC(CC(C3)C1)C2 [AMITC, adamantyl methyl isothiocyanate]	63	11	25.30	7.24	46.18	26.06	27.27	8.52	39.19	29.13	31.32	14.83	48	20.12	31.86	16.07	43	37.44	19.36	19.46	effect on cell cycle phases (in words) ([2]; SKOV-3 ovarian cancer cells): arrest ovarian cancer cells in G2/M phase; viability of immortalized TCL-1 trophoblasts [3]: not significantly affected
